Results on 8 compounds are retold here after US8242274B2, “Triazolopyridine kinase inhibitors useful for the treatment of degenerative and inflammatory diseases” (Galapagos NV, priority 2008, dated 2012).

Data set [1] has as its target T1, Recombinant human JAK2 catalytic domain (Homo sapiens, UniProt O60674).
T1 construct: Recombinant human JAK2 catalytic domain (amino acids 808-1132; catalog number PV4210); purchased Invitrogen PV4210
In words: JAK2 inhibition assay. It is filed as biochemical. Particulars: semi-quantitative score. The protocol:
Recombinant human JAK2 catalytic domain (amino acids 808-1132; catalog number PV4210) was purchased from Invitrogen. 0.025 mU of JAK2 was incubated with 2.5 μg polyGT substrate (Sigma catalog number P0275) in kinase reaction buffer (5 mM MOPS pH 7.5, 9 mM MgAc, 0.3 mM EDTA, 0.06% Brij and 0.6 mM DTT, 1 μM non-radioactive ATP, 0.25 μCi 33P-gamma-ATP (GE Healthcare, catalog number AH9968) final concentrations) with or without 5 μL containing test compound or vehicle (DMSO, 1% final concentration), in a total volume of 25 μL, in a polypropylene 96-well plate (Greiner, V-bottom). After 90 min at 30° C., reactions were stopped by adding of 25 μL/well of 150 mM phosphoric acid. All of the terminated kinase reaction was transferred to prewashed (75 mM phosphoric acid) 96 well filter plates (Perkin Elmer catalog number 6005177) using a cell harvester (Perkin Elmer). Plates were washed 6 times with 300 μL per well of a 75 mM phosphoric acid solution and the bottom of the plates was sealed. 40 μL/well of Microscint-20 was added, the top of the plates was sealed and readout was performed using the Topcount (Perkin Elmer). Kinase activity was calculated by subtracting counts per minute (cpm) obtained in the presence of a positive control inhibitor (10 μM staurosporine) from cpm obtained in the presence of vehicle. The ability of a test compound to inhibit this activity was determined as: Percentage inhibition=((cpm determined for sample with test compound present−cpm determined for sample with positive control inhibitor) divided by (cpm determined in the presence of vehicle−cpm determined for sample with positive control inhibitor))*100%.
Dose dilution series were prepared for the compounds enabling the testing of dose-response effects in the JAK2 assay and the calculation of the IC50 for each compound. Each compound was routinely tested at concentration of 20 μM followed by a 1/3 serial dilution, 8 points (20 μM-6.67 μM-2.22 μM-740 nM-247 nM-82 nM-27 nM-9 nM) in a final concentration of 1% DMSO.

The target of data set [2] is T2, Recombinant human JAK1 catalytic domain (Homo sapiens, UniProt P23458).
T2 construct: Recombinant human JAK1 catalytic domain (amino acids 850-1154; catalog number 08-144); purchased Carna Biosciences 08-144
The data set can be described thus: JAK1 inhibition assay. It is filed as biochemical. Particulars: semi-quantitative score. The method, then:
Recombinant human JAK1 catalytic domain (amino acids 850-1154; catalog number 08-144) was purchased from Carna Biosciences. 10 ng of JAK1 was incubated with 12.5 μg polyGT substrate (Sigma catalog number P0275) in kinase reaction buffer (15 mM Tris-HCl pH 7.5, 1 mM DTT, 0.01% Tween-20, 10 mM MgCl2, 2 μM non-radioactive ATP, 0.25 μCi 33P-gamma-ATP (GE Healthcare, catalog number AH9968) final concentrations) with or without 5 μL containing test compound or vehicle (DMSO, 1% final concentration), in a total volume of 25 μL, in a polypropylene 96-well plate (Greiner, V-bottom). After 45 min at 30° C., reactions were stopped by adding of 25 μL/well of 150 mM phosphoric acid. All of the terminated kinase reaction was transferred to prewashed (75 mM phosphoric acid) 96 well filter plates (Perkin Elmer catalog number 6005177) using a cell harvester (Perkin Elmer). Plates were washed 6 times with 300 μL per well of a 75 mM phosphoric acid solution and the bottom of the plates was sealed. 40 μL/well of Microscint-20 was added, the top of the plates was sealed and readout was performed using the Topcount (Perkin Elmer). Kinase activity was calculated by subtracting counts per minute (cpm) obtained in the presence of a positive control inhibitor (10 μM staurosporine) from cpm obtained in the presence of vehicle. The ability of a test compound to inhibit this activity was determined as: Percentage inhibition=((cpm determined for sample with test compound present−cpm determined for sample with positive control inhibitor)divided by(cpm determined in the presence of vehicle−cpm determined for sample with positive control inhibitor))*100%.
Dose dilution series were prepared for the compounds enabling the testing of dose-response effects in the JAK1 assay and the calculation of the IC50 for each compound. Each compound was routinely tested at concentration of 20 μM followed by a 1/3 serial dilution, 8 points (20 μM-6.67 μM-2.22 μM-740 nM-247 nM-82 nM-27 nM-9 nM) in a final concentration of 1% DMSO.

Data set [3] is described as follows: Microsomal stability, rat. It is filed as in vitro ADME. Conditions: rat liver microsomes, 3 μM compound, 37° C. The protocol:
(§1) A 10 mM stock solution of compound in DMSO was diluted 1000 fold in a 182 mM phosphate buffer pH 7.4 in a 96 deep well plate (Greiner, Cat no. 780285) and pre-incubated at 37° C.
(§2) 40 μL of deionised water was added to a well of a polypropylene Matrix 2D barcode labelled storage tube (Thermo Scientific) and pre-incubated at 37° C.
(§3) A Glucose-6-phosphate-dehydrogenase (G6PDH) working stock solution was prepared in 182 mM phosphate buffer pH7.4 and placed on ice before use. A co-factor containing MgCl2, glucose-6-phosphate and NADP+ was prepared in deionised water and placed on ice before use.
(§4) A final working solution containing liver microsomes (Xenotech) of a species of interest (human, mouse, rat, dog), previously described G6PDH and co-factors was prepared and this mix was incubated for no longer than 20 minutes at room temperature.
(§5) 30 μL of the pre-heated compound dilution was added to 40 μL of pre-heated water in the Matrix tubes and 30 μL of the microsomal mix was added. Final reaction concentrations were 3 μM compound, 1 mg microsomes, 0.4 U/mL GDPDH, 3.3 mM MgCl2, 3.3 mM glucose-6-phosphate and 1.3 mM NADP+.
(§6) To measure percentage remaining of compound at time zero MeOH or ACN was added (1:1) to the well before adding the microsomal mix. The plates were sealed with Matrix Sepra Seals™ (Matrix, Cat. No. 4464) and shaken for a few seconds ensure complete mixing of all components.
(§7) The samples which were not stopped are incubated at 37° C., 300 rpm and after 1 hour of incubation the reaction was stopped with MeOH or ACN (1:1).
(§8) After stopping the reaction the samples were mixed and placed on ice for 30 min to precipitate the proteins. The plates were then centrifuged 30 min at 1200 rcf at 4° C. and the supernatant was transferred to a 96 v-bottom PP plate (Greiner, 651201) for analysis on LCMS.
(§9) These plates were sealed with sealing mats (MA96RD-04S) of www.kinesis.co.uk and samples were measured at room temperature on LCMS (ZQ 1525 from Waters) under optimized conditions using Quanoptimize to determine the appropriate mass of the parent molecule.
(§10) The samples were analyzed on LCMS with a flow rate of 1 mL/min. Solvent A was 15 mM ammonia and solvent B was methanol or acetonitrile, depending on the stop solution used. The samples were run under positive ion spray on an XBridge C18 […] (2.1×30 mm) column, from Waters.
(§11) Peak area from the parent compound at time 0 was considered to be 100% remaining. The percentage remaining after 1 hour incubation was calculated from time 0 and was calculated as the percentage remaining. The solubility of the compound in the final test concentration in buffer is inspected by microscope and results are reported.
(§12) The data on microsomal stability are expressed as a percentage of the total amount of compound remaining after 60 minutes.

Data set [4] is described as follows: Microsomal stability, human. Particulars: human liver microsomes, 3 μM compound, 37° C. It is filed as in vitro ADME. The protocol: as §1, §2, §3, §4, §5, §6, §7, §8, §9, §10, §11, §12
A short description of data set [5]: Caco2 permeability, bi-directional. It is filed as in vitro ADME. Particulars: human, Caco-2; 10 μM, 1 hour, pH 7.4. The protocol: Bi-directional Caco-2 assays were performed as described below. Caco-2 cells were obtained from European Collection of Cell Cultures (ECACC, cat 86010202) and used after a 21 day cell culture in 24-well Transwell plates (Fisher TKT-545-020B).
2×10^5 cells/well were seeded in plating medium consisting of DMEM+GlutaMAXI+1% NEAA+10% FBS (FetalClone II)+1% Pen/Strep. The medium was changed every 2-3 days.
Test and reference compounds (propranolol and rhodamine 123 or vinblastine, all purchased from Sigma) were prepared in Hanks' Balanced Salt Solution containing 25 mM HEPES (pH 7.4) and added to either the apical (125 μL) or basolateral (600 μL) chambers of the Transwell plate assembly at a concentration of 10 μM with a final DMSO concentration of 0.25%.
50 μM Lucifer Yellow (Sigma) was added to the donor buffer in all wells to assess integrity of the cell layers by monitoring Lucifer Yellow permeation. As Lucifer Yellow (LY) cannot freely permeate lipophilic barriers, a high degree of LY transport indicates poor integrity of the cell layer.
After a 1 hour incubation at 37° C. while shaking at an orbital shaker at 150 rpm, 70 μL aliquots were taken from both apical (A) and basal (B) chambers and added to 100 μLl 50:50 acetonitrile:water solution containing analytical internal standard (0.5 μM carbamazepine) in a 96 well plate.
Lucifer yellow was measured with a Spectramax Gemini XS (Ex 426 nm and Em 538 nm) in a clean 96 well plate containing 150 μL of liquid from basolateral and apical side.
Concentrations of compound in the samples were measured by high performance liquid-chromatography/mass spectroscopy (LC-MS/MS).
The Efflux ratios, as an indication of active efflux from the apical cell surface, were calculated using the ratio of PappB>A/PappA>B.

The next data set has as its system TNF release. In words: Septic shock model (LPS). It is filed as in vivo, mice. Conditions: 3 mg/kg. The protocol:
Injection of lipopolysaccharide (LPS) induces a rapid release of soluble tumour necrosis factor (TNF-alpha) into the periphery. This model is used to analyse prospective blockers of TNF release in vivo.
Six BALB/cJ female mice (20 g) per group were treated at the intended dosing once, po. Thirty minutes later, LPS (15 μg/kg; E. Coli serotype 0111:B4) was injected ip. Ninety minutes later, mice were euthanized and blood was collected. Circulating TNF alpha levels were determined using commercially available ELISA kits. Dexamethasone (5 μg/kg) was used as a reference anti-inflammatory compound. Selected compounds are tested at one or multiple doses, e.g. 3 and/or 10 and/or 30 mg/kg, po.

T1 sequence (O60674 808-1132): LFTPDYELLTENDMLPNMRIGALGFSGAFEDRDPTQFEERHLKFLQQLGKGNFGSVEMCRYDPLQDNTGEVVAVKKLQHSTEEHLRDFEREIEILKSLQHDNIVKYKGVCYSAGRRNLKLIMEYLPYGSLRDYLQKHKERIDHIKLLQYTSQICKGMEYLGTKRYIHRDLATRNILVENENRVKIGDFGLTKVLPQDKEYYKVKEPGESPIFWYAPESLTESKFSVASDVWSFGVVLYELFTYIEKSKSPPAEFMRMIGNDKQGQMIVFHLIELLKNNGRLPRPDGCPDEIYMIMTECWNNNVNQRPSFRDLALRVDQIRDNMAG
T2 sequence (P23458 850-1154): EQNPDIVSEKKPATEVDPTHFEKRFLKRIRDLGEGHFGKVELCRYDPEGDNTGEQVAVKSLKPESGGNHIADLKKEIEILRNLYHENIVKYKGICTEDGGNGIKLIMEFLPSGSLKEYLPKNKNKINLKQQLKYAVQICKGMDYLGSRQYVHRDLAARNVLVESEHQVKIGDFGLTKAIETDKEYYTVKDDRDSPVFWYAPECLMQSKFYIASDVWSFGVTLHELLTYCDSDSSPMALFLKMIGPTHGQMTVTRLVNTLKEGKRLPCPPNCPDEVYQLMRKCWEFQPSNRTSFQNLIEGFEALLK

Take `O=C(Nc1nc2cccc(-c3cccc(OCc4ccccc4)c3)n2n1)C1CC1` [Compound 14, N-(5-(3-(benzyloxy)phenyl)-[1,2,4]triazolo[1,5-a]pyridin-2-yl)cyclopropanecarboxamide]: in data set [1], the IC50 was above 501 nM.

`O=C(Nc1nc2cccc(-c3ccc(OCc4ccc(Cl)nc4)cc3)n2n1)C1CC1` [Compound 198, Cyclopropanecarboxylic acid {5-[4-(6-chloro-pyridin-3-ylmethoxy)-phenyl]-[1,2,4]triazolo[1,5-a]pyridin-2-yl}-amide]: the IC50 was in the range of 0.1 to 100 nM in data set [2] and 1 to 100 nM in data set [1]. Further, the “Microsomal stability Rat (%), compound remaining after 60 minutes” value in data set [3] stood at 72.45%. For the same compound, in data set [4], the “Microsomal stability Human (%), compound remaining after 60 minutes” value amounted to 65.8%.

Consider `O=C(Nc1nc2cccc(-c3ccc(NCc4cccnc4)cc3)n2n1)C1CC1` [Compound 182, N-(5-(4-(pyridin-3-ylmethylamino)phenyl)-[1,2,4]triazolo[1,5-a]pyridin-2-yl)cyclopropanecarboxamide], for which the IC50 in data set [2] was 0.1 to 100 nM. Besides, the “Microsomal stability Rat (%), compound remaining after 60 minutes” value in data set [3] turned out to be 19.23%. Further, the “Microsomal stability Human (%), compound remaining after 60 minutes” value in data set [4] came to 19.33%.

`O=C(Nc1nc2cccc(-c3ccc(OCc4ccccc4)c(F)c3)n2n1)C1CC1` [Compound 15, N-(5-(4-(benzyloxy)-3-fluorophenyl)-[1,2,4]triazolo[1,5-a]pyridin-2-yl)cyclopropanecarboxamide]: in data set [2], the IC50 lay within 0.1 to 100 nM. The “Microsomal stability Rat (%), compound remaining after 60 minutes” value in data set [3] was 14%. Also, the Papp A→B at 1 h, 10 μM in data set [5] worked out at 25.8 ×10⁻⁶ cm/s. The “Microsomal stability Human (%), compound remaining after 60 minutes” value in data set [4] is 43%.

In the case of `CC(=O)Nc1nc2cccc(-c3ccc(OCc4ccccc4)cc3)n2n1` [Compound 163, N-(5-(4-(benzyloxy)phenyl)-[1,2,4]triazolo[1,5-a]pyridin-2-yl)acetamide], the IC50 in data set [2] fell in the range of 0.1 to 100 nM. Also, in data set [3], the “Microsomal stability Rat (%), compound remaining after 60 minutes” value was found to be 39.78%. The compound also had a Papp A→B at 1 h, 10 μM in data set [5] of 13.4 ×10⁻⁶ cm/s. Besides, the “Microsomal stability Human (%), compound remaining after 60 minutes” value in data set [4] is given as 53.64%.

Turning to `Cc1ccc(COc2ccc(-c3cccc4nc(NC(=O)C5CC5)nn34)cc2)cn1` [Compound 197, Cyclopropanecarboxylic acid {5-[4-(6-methyl-pyridin-3-ylmethoxy)-phenyl]-[1,2,4]triazolo[1,5-a]pyridin-2-yl}-amide], the IC50 in data set [2] fell in the range of 0.1 to 100 nM; in data set [1], 1 to 100 nM. In addition, the “Microsomal stability Rat (%), compound remaining after 60 minutes” value in data set [3] was 59.41%. Further, in the data set on TNF release, the “activity in the septic shock model” value is recorded as “active”. The “Microsomal stability Human (%), compound remaining after 60 minutes” value in data set [4] came to 46.6%.

`O=C(Nc1nc2cccc(-c3ccc(OCc4ccc(N5CCCC5)nc4)cc3)n2n1)C1CC1` [Compound 174, N-(5-(4-((6-(pyrrolidin-1-yl)pyridin-3-yl)methoxy)phenyl)-[1,2,4]triazolo[1,5-a]pyridin-2-yl)cyclopropanecarboxamide]: in data set [2], the IC50 was above 501 nM.

For `COC(=O)c1ccc(COc2ccc(-c3cccc4nc(NC(=O)C5CC5)nn34)cc2)nc1` [Compound 190], the IC50 in data set [2] is 0.1 to 100 nM. For the same compound, the “Microsomal stability Rat (%), compound remaining after 60 minutes” value in data set [3] is 25.64%. Moreover, the “Microsomal stability Human (%), compound remaining after 60 minutes” value in data set [4] is reported as 2.13%.
